{"source": "patent US6531453B1", "about": "“NKT cell activators containing α-glycosylceramides” (Kirin Beera Kabushiki Kaisha, priority 1997, dated 2003)", "key": {"[1]": {"test_system": "Vα24+ NKT cells", "experiment": "Stimulation of Vα24+ NKT cell proliferation, autologous mixed leukocyte reaction with treated antigen-presenting cells", "assay_type": "cell-based, human", "conditions": "antigen-presenting cells treated with 100 ng/ml, FIG. 9", "experimental": "Peripheral blood mononuclear cells of a normal human were cultured for 4 days in an AIM medium supplemented with 10% FCS with the addition of GM-CSF (400 U/ml), IL-4 (200 U/ml) and KRN 7000 (100 ng/ml) to prepare antigen-presenting cells.\nAn autologous mixed leukocyte reaction (MLR) was performed using these antigen-presenting cells as stimulator cells and autologous peripheral blood mononuclear cells as responder cells. After incubation for 10 days, IL-2 (5 U/ml) was added, incubation was continued for another 4 days, and the cells were harvested. Next, CD4, CD8 double negative cells were recovered from these harvested cells and subjected to the phenotype analysis. The phenotypic analysis was expressed by fluorescence intensity of labeled antibodies against cells having various phenotypes.\nThe cells were cultured using IL-2 (5 U/ml) to stimulate the proliferation of Vα24^+ NKT cells, which were used as responder cells in the following autologous mixed leukocyte reaction. Autologous peripheral blood mononuclear cells were cultured for 4 days with the addition of GM-CSF +IL-4 and 100 ng/ml of KRN 7000, AGL-583 (β-galactosylceramide, β-GalCer) or 0.1% DMSO (vehicle) to prepare antigen-presenting cells. An autologous mixed leukocyte reaction was carried out using these antigen-presenting cells as stimulator cells. […]"}, "[2]": {"test_system": "Vα14+ NKT cells", "experiment": "Stimulation of spleen NKT cell proliferation in C57BL/6 mice (3-color FACS analysis)", "assay_type": "in vivo, mouse", "experimental": "A vehicle (physiological saline solution containing 0.5% Polysolvate 20) or 1, 10 or 100 ng/kg of KRN 7000 was intravenously administered to C57BL/6 mice (Japan SLC, Inc.), and the spleen of individual mice was taken out after 24 hours to prepare spleen cells by conventional methods. These spleen cells were incubated in a plastic dish for 30 minutes to prepare nonadherent cells. By removing B cells in this nonadherent cells, a lymphocyte fraction was prepared. T cells, NK cells, NKT cells and Vα14^+ NKT cells in this fraction were analyzed by the 3-color FACS analysis using the FITC-labeled anti-TCR αβ monoclonal antibody (Pharmingen), cychrome-labeled anti-NK1.1 monoclonal antibody (Pharmingen) and PE-labeled anti-Vα14 monoclonal antibody (FIG. 2). The anti-Vα14 monoclonal antibody was obtained by implanting anti-Vα14 monoclonal antibody producing hybridomas (CMS-1; available from Masaru Taniguchi et al, School of Medicine, Chiba University) in nude mice and recovering ascites from the animals to purify the antibody. In FIGS. 2A and 2B, the numbers of NK1.1 cells, TCRαβ cells and […] in the lymphocyte fraction were expressed as fluorescence intensity of the labeled antibodies against these cells."}, "[3]": {"test_system": "NOD/ShiJic (NOD) mice", "experiment": "Suppression of spontaneous diabetes onset in NOD mice", "assay_type": "in vivo, mouse", "conditions": "100 μg/kg i.p. twice a week from 7 weeks of age; control 80%, FIG. 7", "experimental": "Ten animals per group of NOD/ShiJic (NOD) mice (6-week-old, females) (Japan Clea, Inc.) were used for the following experiment. […] The animals were divided into two groups, i.e., one group to which 100 μg/kg of KRN 7000 were intraperitoneally administered twice a week starting from 7-weeks of age, and an untreated control group. The presence and absence of diabetic symptoms was examined every week. The blood glucose level was measured using a glucometer (Miles Sankyo), and mice showing the value of more than 200 mg/dL twice consecutively were diagnosed to be diabetic."}, "[4]": {"test_system": "spleen cells of RAG-1KO/Vα14tg/Vβ8.2tg mice (NKT cells)", "experiment": "Stimulation of NKT cell proliferation, [3H]thymidine incorporation in spleen cells", "assay_type": "cell-based, mouse", "conditions": "2 days incubation", "experimental": "Stimulation of NKT cell proliferation by compounds having an α-glycosylceramide structure was studied using spleen cells of RAG-1KO/Vα14tg/Vβ8.2tg mice shown in Pharmacological Test Example 1.\nSpleen cells were prepared from the spleen of RAG-1KO/Vα14tg/Vβ8.2tg mice by conventional methods. These spleen cells were suspended at 2×10^6 cells/ml in an RPMI 1640 medium supplemented with 10% FCS, and 100 μl each of the suspension were plated into wells of 96-well round-bottomed plates. Ten different kinds of compounds having an α-glycosylceramide structure shown in FIG. 12 were added to the wells of the plates at a final concentration of 1, 10 or 100 ng/ml, and the plates were incubated for 2 days. Sixteen hours after the addition of [^3H] thymidine (0.5 μCi/well), the cells were harvested. The amount of [^3H] thymidine incorporated into the cells was measured by a liquid scintillation counter."}, "[5]": {"conditions": "spleen, i.v., 24 hours, FIG. 2C"}}, "data": [{"smiles": "CCCCCCCCCCCCCCCCCCCCCCCCCC(=O)N[C@@H](CO[C@H]1O[C@H](CO)[C@H](O)[C@H](O)[C@H]1O)[C@H](O)[C@H](O)CCCCCCCCCCCCCC", "note": "[KRN 7000, (2S,3S,4R)-1-(α-D-galactopyranosyloxy)-2-hexacosanoylamino-3,4-octadecanediol]", "values": [{"measurement": "effect of treated antigen presenting cells on Vα24+ NKT cell proliferation ([3H]thymidine uptake)", "setting": "[1]", "value": "marked stimulative effect"}, {"measurement": "rate of NK1.1+ TCRαβ cells in the spleen lymphocyte fraction vs vehicle", "setting": "[2]; 100 ng/kg i.v., 24 hours, FIG. 2A", "value": "marked increase"}, {"measurement": "rate of Vβ14+ cells in NK1.1+ TCRβα+ cells vs vehicle", "setting": "[2]; 100 ng/kg i.v., 24 hours, FIG. 2B", "value": "increase"}, {"measurement": "numbers of NK cells in the spleen lymphocyte fractions", "setting": "[2]; 10 or 100 ng/kg i.v., 24 hours, FIG. 2C", "value": "equal to those from the vehicle-administered mice"}, {"measurement": "increase in numbers of Vα14+ NKT cells in the spleen lymphocyte fraction vs vehicle", "setting": "[2]; i.v., 24 hours, FIG. 2C", "value": "more than four times"}, {"measurement": "increase in numbers of Vα14− NKT cells in the spleen lymphocyte fraction vs vehicle", "setting": "[2]; i.v., 24 hours, data not shown", "value": "more than three times"}, {"measurement": "numbers of Vα14+ cells in the liver", "setting": "[2]; liver, data not shown", "value": "marked increase"}, {"measurement": "numbers of Vα14− NKT cells in the liver", "setting": "[2]; liver, data not shown", "value": "marked increase"}, {"measurement": "increase in the numbers of T cells vs vehicle-administered mice", "setting": "[2]; [5]", "value": "about 2 fold"}, {"measurement": "increase in the numbers of lymphocyte fractions vs vehicle-administered mice", "setting": "[2]; [5]", "value": "about 2 fold"}, {"measurement": "mice that became diabetic at the age of 35 weeks", "setting": "[3]", "value": "none"}, {"measurement": "[3H] Thymidine incorporation (cpm)", "setting": "[4]; 1 ng/ml, vehicle 2090", "value": 40064, "unit": "cpm"}, {"measurement": "[3H] Thymidine incorporation (cpm)", "setting": "[4]; 10 ng/ml, vehicle 2056", "value": 74669, "unit": "cpm"}, {"measurement": "[3H] Thymidine incorporation (cpm)", "setting": "[4]; 100 ng/ml, vehicle 2014", "value": 102543, "unit": "cpm"}]}]}
